The text below walks through data of patent publication US7223751B2, “Sulfonamide derivatives, intermediate thereof, its preparation methods, and pharmaceutical composition comprising the same” (Kolon Ind. Inc., priority 2001, dated 2007).

Assay [1] has as its system HUVEC (human umbilical vein endothelial cell) cells. Briefly: Tube formation activity on matrigel. It is filed as cell-based. Details: key: −: control; ±: tube almost resembles control; +: inhibition; ++: significant inhibition; +++: complete inhibition. Conditions: 16-24 hours. On the procedure:
In a culture flask previously coated with gelatin, HUVEC (human umbilical vein endothelial cell) cells cultured with a M199 medium (containing 20% FBS, 3 ng/ml bFGF, 100 μg/ml heparin) were treated with trypsin/EDTA, and then number of cells are counted so that number of cells may be 2×10^4 cells/well in a 96-well plate previously coated with matrigel. Samples were then added and cultured in a CO2 culture medium at 37° C. for 16-24 hours.

For a further assay, the target named is T1, MMP-2 (Homo sapiens, UniProt P08253).
T1 sequence (P08253 110-660): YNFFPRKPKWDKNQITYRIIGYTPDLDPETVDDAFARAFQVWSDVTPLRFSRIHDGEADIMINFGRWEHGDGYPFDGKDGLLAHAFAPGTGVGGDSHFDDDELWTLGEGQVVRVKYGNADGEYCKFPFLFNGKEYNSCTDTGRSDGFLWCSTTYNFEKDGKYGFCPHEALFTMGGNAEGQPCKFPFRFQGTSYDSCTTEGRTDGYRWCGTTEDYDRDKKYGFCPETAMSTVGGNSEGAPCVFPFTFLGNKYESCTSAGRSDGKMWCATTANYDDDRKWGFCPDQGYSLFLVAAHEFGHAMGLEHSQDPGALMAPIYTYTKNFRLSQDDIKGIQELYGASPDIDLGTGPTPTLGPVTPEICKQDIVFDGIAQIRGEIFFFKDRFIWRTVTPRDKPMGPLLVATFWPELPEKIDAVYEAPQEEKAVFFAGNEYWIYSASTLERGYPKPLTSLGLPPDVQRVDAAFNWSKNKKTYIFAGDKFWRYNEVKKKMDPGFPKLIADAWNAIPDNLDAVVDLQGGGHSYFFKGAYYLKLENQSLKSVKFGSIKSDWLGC
Briefly: MMP inhibiting activity, fluorescence assay. The assay is classed as biochemical. Conditions: read-out: Enzyme inhibiting constant IC50 MMP-2. The method, then:
(§1) Inhibitory activities of all the enzymes were measured similarly to the MMP-2 activity measuring method shown below. Prior to measuring, proMMP-2 was treated with 1 mM p-aminophenyl mercuricacetate at 37° C. for 45 minutes to activate it. The ProMMP-9 was activated to an enzyme with MMP-3, and stored at −80° C. until used.
(§2) MMP activities were measured by fluorescence assay by changing a microtiter plate formate according to the reported method (Knight, C. G., Willenbrock, F., Murphy, G. A., FEBS Lett. 1992, 296, 263-266). On a dynatech MicroFLUOR plate, a buffer solution comprising 50 Mm Tris-HCl pH 7.5, 10 mM CaCl2, 0.15 M NaCl, 0.05% Brij, and 1-8 μM of a substrate (Mca-Pro-Leu-Gly-Leu-Dpa-Ala-Arg-NH2), and various concentrations of inhibitors were introduced, and it was reacted with activated enzymes at 37° C. for 20-30 minutes. Reaction was terminated by putting the reactant in 50 mM EDTA, and then fluorescence was measured with a spectrofluorometer attached to a microplate reader (λex 328 nm, λ em 393 nm). The inhibiting activity degree was indicated by an IC50 value, which is a concentration inhibiting activity by 50% compared to the control.

A further assay has as its target T2, MMP-1 (Homo sapiens, UniProt P03956).
T2 sequence (P03956 100-469): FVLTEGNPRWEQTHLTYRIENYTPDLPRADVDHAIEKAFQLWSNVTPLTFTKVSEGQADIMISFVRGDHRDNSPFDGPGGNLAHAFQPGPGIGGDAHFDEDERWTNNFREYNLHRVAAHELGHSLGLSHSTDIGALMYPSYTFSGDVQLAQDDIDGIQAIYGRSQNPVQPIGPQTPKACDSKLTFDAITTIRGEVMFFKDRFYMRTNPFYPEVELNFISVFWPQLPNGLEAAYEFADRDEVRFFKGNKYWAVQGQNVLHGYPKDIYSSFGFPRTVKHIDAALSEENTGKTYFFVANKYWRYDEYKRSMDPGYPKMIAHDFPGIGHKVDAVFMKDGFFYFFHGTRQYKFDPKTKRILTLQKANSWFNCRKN
Briefly: MMP inhibiting activity, fluorescence assay. It is filed as biochemical. Conditions: read-out: Enzyme inhibiting constant IC50 MMP-1. The method, then:
as §1, §2

The target in a further assay is MMP-13 (Homo sapiens, UniProt P45452). Description: MMP inhibiting activity, fluorescence assay. It is filed as biochemical. The note with it: read-out: Enzyme inhibiting constant IC50 MMP-13. On the procedure:
as §1, §2

The target of a further assay is MMP-9 (Homo sapiens, UniProt P14780). Briefly: MMP inhibiting activity, fluorescence assay. The assay is classed as biochemical. Conditions: read-out: Enzyme inhibiting constant IC50 MMP-9. On the procedure: as §1, §2
MMP-9, sequence (P14780 107-707 limits assumed, species assumed): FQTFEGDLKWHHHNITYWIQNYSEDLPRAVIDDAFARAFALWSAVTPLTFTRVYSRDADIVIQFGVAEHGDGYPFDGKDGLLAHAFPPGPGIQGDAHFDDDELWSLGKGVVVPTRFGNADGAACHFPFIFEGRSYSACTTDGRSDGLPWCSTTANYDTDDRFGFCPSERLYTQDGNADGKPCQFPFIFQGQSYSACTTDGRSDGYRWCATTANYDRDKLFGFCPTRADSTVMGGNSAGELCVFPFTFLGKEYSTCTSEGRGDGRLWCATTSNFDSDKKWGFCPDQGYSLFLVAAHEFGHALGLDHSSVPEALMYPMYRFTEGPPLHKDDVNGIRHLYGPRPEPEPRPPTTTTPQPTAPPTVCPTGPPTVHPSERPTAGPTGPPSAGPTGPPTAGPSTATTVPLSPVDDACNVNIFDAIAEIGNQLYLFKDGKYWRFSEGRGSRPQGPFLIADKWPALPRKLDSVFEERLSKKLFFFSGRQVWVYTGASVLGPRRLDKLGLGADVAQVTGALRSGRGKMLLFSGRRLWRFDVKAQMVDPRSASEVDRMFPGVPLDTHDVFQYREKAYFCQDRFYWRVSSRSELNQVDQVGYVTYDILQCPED
For the next assay, the target named is MMP-14 (Homo sapiens, UniProt P50281). Briefly: MMP inhibiting activity, fluorescence assay. It is filed as biochemical. Conditions: read-out: Enzyme inhibiting constant IC50 MMP-14. The method, then: as §1, §2

On to “1-(4-Methoxy-benzenesulfonyl)-4-methyl-5-oxo-piperazine-2-hydroxamate [Example 25]”, for which the results for the “Tube Formation” value in assay [1] (concentration 5 μM), in assay [1] (concentration 50 μM) and in assay [1] (concentration 100 μM) were “−”, “−” and “+”, respectively. The IC50 (commonly the concentration needed to halve the response being measured) was determined as 3 nM at MMP-2, 82 nM at MMP-1 and 16 nM on MMP-13.

On to “4-Benzyl-1-(4-methoxy-benzenesulfonyl)-5-oxo-piperazine-2-hydroxamate [Example 7]”, for which the results for the “Tube Formation” value in assay [1] (concentration 5 μM) and in assay [1] (concentration 50 μM) were “±” and “+”, respectively. The IC50 on MMP-2 turned out to be 7 nM; at MMP-1, 52 nM; at MMP-9, 25 nM; on MMP-13 it was 18 nM; at MMP-14, 36 nM.

For “4-Butyl-1-(4-methoxy-benzenesulfonyl)-5-oxo-piperazine-2-hydroxamate [Example 19]”, the results for the “Tube Formation” value in assay [1] (concentration 5 μM), in assay [1] (concentration 50 μM) and in assay [1] (concentration 100 μM) were “+”, “+” and “++”, respectively. Moreover, the IC50 was found to be 15 nM at MMP-2, 47 nM on MMP-1 and 14 nM at MMP-13.

Take `COc1ccc(S(=O)(=O)N2CC(=O)NCC2C(=O)NO)cc1` (stereo not drawn) [Example 5, 1-(4-Methoxy-benzenesulfonyl)-5-oxo-piperazine-2-hydroxamate]: the “Tube Formation” value in assay [1] (concentration 5 μM) was “±”; in assay [1] (concentration 50 μM), “+”; in assay [1] (concentration 100 μM), “++”. For the same compound, the IC50 on MMP-2 was found to be 4 nM; on MMP-9, 12.4 nM; at MMP-14, 28 nM.

Regarding `COc1ccc(S(=O)(=O)N2CC(=O)N(CCc3ccccn3)CC2C(=O)NO)cc1` (stereo not drawn) [Example 15], the “Tube Formation” value is listed as “+” in assay [1] (concentration 5 μM), “+” in assay [1] (concentration 50 μM) and “++” in assay [1] (concentration 100 μM). Also, the IC50 at MMP-2, on MMP-1 and on MMP-13 was more than 10000 nM throughout.

As to `CCCCCCCCN1CC(C(=O)NO)N(S(=O)(=O)c2ccc(-c3ccc(Br)cc3)cc2)CC1=O` (stereo not drawn) [Example 32, 1-(4′-Bromo-biphenyl-4-sulfonyl)-4-octyl-5-oxo-piperazine-2-hydroxamate], the “Tube Formation” value in assay [1] (concentration 5 μM) was “++”; in assay [1] (concentration 50 μM) it was “+++”; in assay [1] (concentration 100 μM), “+++”. Further, the IC50 at MMP-2 worked out at 2 nM; on MMP-1, 16 nM; on MMP-9, 1.3 nM; at MMP-13 it was 7 nM.

For the compound `CCCCCCCCN1CC(C(=O)O)N(S(=O)(=O)c2ccc(-c3ccc(Br)cc3)cc2)CC1=O` (stereo not drawn) [Example 33, 1-(4′-Bromo-biphenyl-4-sulfonyl)-4-octyl-5-oxo-piperazine-2-carboxylic acid], the “Tube Formation” value in assay [1] (concentration 5 μM) was “+”; in assay [1] (concentration 50 μM) it was “++”; in assay [1] (concentration 100 μM), “+++”. Also, the IC50 at MMP-2 is 80 nM; at MMP-1 it was 2430 nM; on MMP-13 it was 2100 nM.

Turning to `CCCCCCCCCCCCN1CC(C(=O)O)N(S(=O)(=O)c2ccc(-c3ccc(Br)cc3)cc2)CC1=O` (stereo not drawn) [Example 39, 1-(4′-Bromo-biphenyl-4-sulfonyl)-4-dodecyl-5-oxo-piperazine-2-carboxylic acid], the “Tube Formation” value is on record as “−” in assay [1] (concentration 0.5 μM), “−” in assay [1] (concentration 5 μM) and “+” in assay [1] (concentration 50 μM). Also, the IC50 at MMP-2 turned out to be 567 nM; at MMP-1, 8270 nM; on MMP-13, 2350 nM.

As to `CCCCCCN1CC(C(=O)O)N(S(=O)(=O)c2ccc(-c3ccc(Br)cc3)cc2)CC1=O` (stereo not drawn) [Example 45, 1-(4′-Bromo-biphenyl-4-sulfonyl)-4-hexyl-5-oxo-piperazine-2-carboxylic acid], the “Tube Formation” value in assay [1] (concentration 0.5 μM), in assay [1] (concentration 5 μM) and in assay [1] (concentration 50 μM) was “++” throughout. The values for the half-inhibitory concentration (IC50) on MMP-2, at MMP-1 and on MMP-13 were 11 nM, 95 nM and 82 nM, respectively.

Turning to `CCCCCCCCCCN1CC(C(=O)O)N(S(=O)(=O)c2ccc(-c3ccc(Br)cc3)cc2)CC1=O` (stereo not drawn) [Example 47, 1-(4′-Bromo-biphenyl-4-sulfonyl)-4-decyl-5-oxo-piperazine-2-carboxylic acid], the “Tube Formation” value in assay [1] (concentration 0.5 μM) is given as “++”; in assay [1] (concentration 5 μM), “++”; in assay [1] (concentration 50 μM), “+++”. Besides, the results for the IC50 on MMP-2, on MMP-1 and at MMP-13 were 140 nM, 5400 nM and 2460 nM, respectively.

As to `CCCCN1CC(C(=O)O)N(S(=O)(=O)c2ccc(-c3ccc(Br)cc3)cc2)CC1=O` (stereo not drawn) [Example 49, 1-(4′-Bromo-biphenyl-4-sulfonyl)-4-butyl-5-oxo-piperazine-2-carboxylic acid], the “Tube Formation” value in assay [1] (concentration 0.5 μM) is listed as “±”; in assay [1] (concentration 5 μM) it was “++”; in assay [1] (concentration 50 μM), “++”. The IC50 on MMP-2 came to 9 nM; on MMP-1, 114 nM; on MMP-13, 1130 nM.

Take `O=C(O)C1CN(CCCCCCO)C(=O)CN1S(=O)(=O)c1ccc(-c2ccc(Br)cc2)cc1` (stereo not drawn) [Example 51, 1-(4′-Bromo-biphenyl-4-sulfonyl)-4-(6-hydroxy-hexyl)-5-oxo-piperazine-2-carboxylic acid]: the IC50 was found to be 5 nM on MMP-2, 29 nM on MMP-1 and 19 nM on MMP-13.

`CCCCCCCCC=CCCCCCCCCN1CC(C(=O)O)N(S(=O)(=O)c2ccc(-c3ccc(Br)cc3)cc2)CC1=O` (stereo not drawn) [Example 53, 1-(4′-Bromo-biphenyl-4-sulfonyl)-4-octadec-9-enyl-5-oxo-piperazine-2-carboxylic acid]: the IC50 at MMP-2 is 220 nM; on MMP-1, more than 10000 nM; on MMP-13, more than 10000 nM.

`CCCCCCCCN1CC(C(=O)O)N(S(=O)(=O)c2ccc(-n3cccc3)cc2)CC1=O` (stereo not drawn) [Example 58, 4-Octyl-5-oxo-1-(4-pyrrol-1-yl-benzenesulfonyl)-piperazine-2-carboxylic acid]: the “Tube Formation” value was “±” in assay [1] (concentration 0.5 μM), “++” in assay [1] (concentration 5 μM) and “++” in assay [1] (concentration 50 μM).

For the compound `CCCCCCCCN1CC(C(=O)O)N(S(=O)(=O)c2ccc(NC(=O)c3ccc(Cl)cc3)cc2)CC1=O` (stereo not drawn) [Example 60, 1-[4-(4-chloro-benzoylamino)-benzenesulfonyl]-4-octyl-5-oxo-piperazine-2-carboxylic acid], the “Tube Formation” value was “+” in assay [1] (concentration 0.5 μM), “++” in assay [1] (concentration 5 μM) and “++” in assay [1] (concentration 50 μM). Besides, the half-maximal inhibitory concentration (IC50) on MMP-2 is 3 nM; at MMP-1, 18 nM; on MMP-9, 3.2 nM; at MMP-13, 24 nM.
